In US20250236614A1, “BICYCLIC TETRAHYDROAZEPINE DERIVATIVES” (Hoffmann-La Roche Inc., priority 2022, published 2025):
Like-named read-outs stand apart in the source and are kept apart here.

What was measured:
[1] = biological target: T1, hDGKalpha(1-735)-N-His (DGKA) (Homo sapiens, UniProt P23743); assay: In vitro DGK inhibition assay (ADP-Glo, in house), DGK alpha; assay type: biochemical; conditions: isomer A; 4 nM DGK α, 25 μM ATP, 125 μM DLG in liposomes, 1 hour reaction; read-out: DGKalpha ADP Glo assay IC50
T1 construct: hDGKalpha(1-735)-N-His; His (N)
T1 sequence (P23743 whole entry): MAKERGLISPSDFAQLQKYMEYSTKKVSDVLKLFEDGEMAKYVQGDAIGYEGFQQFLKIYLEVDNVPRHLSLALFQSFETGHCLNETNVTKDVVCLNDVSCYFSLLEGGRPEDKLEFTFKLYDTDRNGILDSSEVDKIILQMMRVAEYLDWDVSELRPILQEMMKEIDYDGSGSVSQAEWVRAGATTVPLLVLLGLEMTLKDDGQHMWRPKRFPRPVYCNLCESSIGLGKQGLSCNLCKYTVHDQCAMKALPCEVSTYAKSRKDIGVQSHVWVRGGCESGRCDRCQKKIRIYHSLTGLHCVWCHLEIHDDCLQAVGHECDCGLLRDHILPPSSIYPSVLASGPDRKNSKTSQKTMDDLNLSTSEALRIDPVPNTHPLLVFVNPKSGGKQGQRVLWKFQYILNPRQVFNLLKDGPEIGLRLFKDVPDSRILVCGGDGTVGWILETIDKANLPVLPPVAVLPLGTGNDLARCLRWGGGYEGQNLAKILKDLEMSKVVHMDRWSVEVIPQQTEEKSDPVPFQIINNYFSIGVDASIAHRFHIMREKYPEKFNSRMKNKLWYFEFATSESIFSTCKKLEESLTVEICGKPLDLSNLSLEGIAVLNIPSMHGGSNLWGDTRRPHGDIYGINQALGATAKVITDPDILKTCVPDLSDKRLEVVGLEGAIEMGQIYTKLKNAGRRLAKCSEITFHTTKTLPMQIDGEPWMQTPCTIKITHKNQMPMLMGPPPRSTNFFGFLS
Procedure: DGK α and ζ kinase use ATP to phosphorylate the substrate 1,2-dilauroyl-sn-glycerol (DLG, incorporated in the liposomes). ATP is converted to ADP as a result of this enzymatic reaction.
After the kinase reaction, an ATP-depletion reagent is added to terminate the kinase reaction and deplete any remaining ATP, leaving only ADP. Second, a detection reagent is added to simultaneously convert ADP to ATP and allow the newly synthesized ATP to be converted to light using a coupled luciferase/luciferin reaction.
Full length DGKA and Z were expressed in Sf21 insect cells by infecting the cells with the baculovirus stock at MOI of 2. Purification of both enzymes was performed as previously described by Takahashi et al., PeerJ, 2018 (Takahashi, D.; Sakane, F. Expression and purification of human diacylglycerolkinase alpha from baculovirus-infected insect cells for structural studies. PeerJ2018, 6, No. e5449).
A concentrated liposome solution was prepared in assay buffer without DTT and BSA: 2 mM of DLG in 21 mM of total liposome (2 mM DLG/8 mM PS/11 mM PC). The reaction mixtures contain the assay buffer with a final DLG concentration of 125 μM ATP concentrations of 25 μM (for DGKA assay) or 50 μM (for DGKZ assay). The reactions were started by addition of DGK α and ζ kinases at 4 nM and 2 nM final concentrations, respectively. After 1 hour reaction, the amount of ADP formed was detected with the ADP-Glo kinase assay (Promega) according to the manufacturer instructions. Compounds were added in 11I-points dose response, starting at 10 mM, 1:3 dilutions, with a final DMSO concentration of […]. The multidrop combi was used as a liquid handler and luminescence was read with 0.5 s by the envision reader (PE).

[2] = system: primary human T-cells; assay: T-cell proliferation assay (CellTiter-Glo); assay type: cell-based; conditions: isomer A; for EC50: CD3 antibody-stimulated T-cells, CellTiter-Glo after 5 days, read-out: Tcell Proliferation CD3 EC50; for Emax / Emax proliferation (% activation): CD3 condition, 5 days, 20 μM reference compound A1 = 100%, DMSO neutral control; for Emax: read-out: Emax proliferation (% activation)
Procedure: Expanded primary human T-cells are thawed and cultured in RPMI 1640 (Gibco, #61870-010)+5% human serum (HS, Sigma, #H3667)+1 mM Sodium Pyruvate (Gibco, #11360-039)+50 μM 2-mercaptoethanol (Gibco, #31350-010) and 1× Pen-Strep (Life Technologies, #15140122) medium at density of 2 Mio/ml for 3 hours in 5% CO2, 37° C. and 95% humidity. For coating of plates, PBS++ only or PBS++ with CD3 antibody (concentration depending on donor and determined by CD3 titrations) is added 100 μl/well to Poly-D Lysine coated 96-well plates. Plates are sealed and incubated at room temperature for 3 hours on a table-top rocking platform. After incubation, plates are washed once with PBS−− and filled with 40 μl/well culture medium only. Compounds are then added (see next section) to medium only plates. After 3 hours of culturing the T-cells, cells are filtered through a cell strainer (Miltenyi Biotech, #130-041-407), counted again and concentration is adjusted to 1.25 Mio/ml.
Cells are then seeded 80 μl/well to the 40 μl/well including dispensed compounds according to plate layout. By adding cells, compounds are further diluted 1:3, and resulting in 100k cells/120 μl/well. After 48 hours 40 μl of supernatant is collected carefully from the top while not disturbing the cells. Cells are assessed for proliferation 5 days later by measuring […] using CellTiterGlo (Promega).
Compounds were added in a 5 or 6 pt dose response with the Tecan D300e Digital Dispenser, all conditions 3 times more concentrated than the end-concentration, since cells are added afterwards (80 μl cells to 40 μl prepared medium with treatment). The DR was starting at 20 μM or 10 μM final top concentration and a dilution factor of 3.333. The positive control was the reference compound A1 that was added in a dose response as well, additionally to 3 wells of only 20 μM representing the positive stimulator control. All wells were normalized with DMSO to a final concentration of 0.6% (0.2% end-concentration).
After 5 days, for detection of ATP which is directly proportional to the number of cells present per well, the CellTiter-Glo® 2.0 Reagent is used. After visual control for toxicity or precipitations of the tested compounds, the plates are equilibrated to room temperature for 45 minutes. CellTiter-Glo® 2.0 Reagent is equilibrated to room temperature as well. After equilibration, an equal amount of CellTiter-Glo reagent is added to the cells (80 μl/well) with an electronic multichannel pipette. Plates are placed on a rocking platform for 15 minutes at room temperature. After incubation, the bottom of the plates is sealed with backing tape. Luminescence is measured with PHERAstar FSX (interval time 0.5 sec, gain 3000, focal height 15 mm) and exported as CSV file for analysis in Genedata screener.
CD3 and PBS plates were analysed separately in Genedata Screener using Roche Normalization PCT_POS_CTRL with DMSO set as Neutral Control and 20 μM of the reference compound A1 set as Stimulator Control/100%.
For CD3 conditions EC50 and Emax of the fitted sigmoidal curve were reported. If no curve could be fitted, the EC50 was reported as blank field and the Emax was based on individual data points. […] Compounds which activate unstimulated cells (see IL2 measurements) or compounds which negatively affected viability were flagged.

Molecule	IC50 [1] [µM]	EC50 ([2]; Homo sapiens, T-cell, 120 h) [nM]	Emax ([2]; Homo sapiens, T-cell, 120 h) [%]	EC50 [2] [nM]	Emax proliferation (% activation) [2] [% activation]
COc1ccc(-c2ccc(CN3C(=O)[C@H](N)CC(F)(F)c4cc(F)c(-c5nnc(C(C)(C)S(C)(=O)=O)o5)cc43)cc2)nc1 (single isomer, unassigned) [Example 39]	44.4	1420	98		
COc1ccc(-c2ccc(CN3C(=O)[C@H](N)CC(F)(F)c4cc(F)c(-c5nnc(C(C)(C)C#N)o5)cc43)cc2)nc1 (single isomer, unassigned) [Example 38]	≥ 60	1020	105		
N[C@@H]1CC(F)(F)c2cc(F)c(-c3nnc(N4CCC(F)(F)CC4)o3)cc2N(Cc2ccc(-c3noc(C(F)(F)F)n3)cc2)C1=O (single isomer, unassigned) [Example 15]	39.6	127	108		
2-methyl-2-[5-[(3S)-3-amino-5,5,7-trifluoro-2-oxo-1-[[4-(trifluoromethoxy)phenyl]methyl]-3,4-dihydro-1-benzazepin-8-yl]-1,3,4-oxadiazol-2-yl]propanenitrile and 2-methyl-2-[5-[(3R)-3-amino-5,5,7-trifluoro-2-oxo-1-[[4-(trifluoromethoxy)phenyl]methyl]-3,4-dihydro-1-benzazepin-8-yl]-1,3,4-oxadiazol-2-yl]propanenitrile [Example 2]	1.4			315	161
CC(C)(C#N)c1nnc(-c2cc3c(cc2F)C(F)(F)C[C@@H](N)C(=O)N3Cc2ccc(-c3ncc(C(F)(F)F)cc3F)cc2)o1 (single isomer, unassigned) [Example 19]	41.6	984	85		
(3S)-3-amino-5,5,7-trifluoro-8-(5-morpholino-1,3,4-oxadiazol-2-yl)-1-[[4-(trifluoromethoxy)phenyl]methyl]-3,4-dihydro-1-benzazepin-2-one and (3R)-3-amino-5,5,7-trifluoro-8-(5-morpholino-1,3,4-oxadiazol-2-yl)-1-[[4-(trifluoromethoxy)phenyl]methyl]-3,4-dihydro-1-benzazepin-2-one [Example 3]	1.57			550	57
CC(C)(C#N)c1nnc(-c2cc3c(cc2F)C(F)(F)C[C@@H](N)C(=O)N3Cc2ccc(-c3ccc(C(F)(F)F)cc3)nc2)o1 (single isomer, unassigned) [Example 28]	31.7	978	96		
CC(C)(c1nnc(-c2cc3c(cc2F)C(F)(F)C[C@@H](N)C(=O)N3Cc2ccc(-c3ccc(C(F)(F)F)cc3)cc2)o1)S(C)(=O)=O (single isomer, unassigned) [Example 32]	51.3	2340	81		

Further lines, with some results ahead:

IC50 [1] [µM]	Molecule	EC50 ([2]; Homo sapiens, T-cell, 120 h) [nM]	Emax ([2]; Homo sapiens, T-cell, 120 h) [%]	EC50 [2] [nM]	Emax proliferation (% activation) [2] [% activation]
0.551	CC(C)(c1nnc(-c2cc3c(cc2F)C(F)(F)C[C@@H](N)C(=O)N3Cc2ccc(-n3cc(C(F)(F)F)cn3)cc2)o1)S(C)(=O)=O (single isomer, unassigned) [Example 29]	91.7	93		
2.37	CC(C)(C#N)c1nnc(-c2cc3c(cc2F)C(F)(F)CC(N)C(=O)N3Cc2ccc(-n3cc(C(F)(F)F)cn3)cc2)o1 (racemic) [Example 33, 2-[5-[(3S)-3-amino-5,5,7-trifluoro-2-oxo-1-[[4-[4-(trifluoromethyl)pyrazol-1-yl]phenyl]methyl]-3,4-dihydro-1-benzazepin-8-yl]-1,3,4-oxadiazol-2-yl]-2-methyl-propanenitrile and 2-[5-[(3R)-3-amino-5,5,7-trifluoro-2-oxo-1-[[4-[4-(trifluoromethyl)pyrazol-1-yl]phenyl]methyl]-3,4-dihydro-1-benzazepin-8-yl]-1,3,4-oxadiazol-2-yl]-2-methyl-propanenitrile]	98.8	128		
10.9	N[C@@H]1CC(F)(F)c2cc(F)c(-c3nnc(N4CCCC4)o3)cc2N(Cc2ccc(-n3cnc(C(F)(F)F)n3)cc2)C1=O (single isomer, unassigned) [Example 21]	> 10000	43		
10.6	N[C@@H]1CC(F)(F)c2cc(F)c(-c3nnc(N4CCC(F)(F)C4)o3)cc2N(Cc2ccc(-n3cnc(C(F)(F)F)n3)cc2)C1=O (single isomer, unassigned) [Example 22]	2110	62		
24.6	CC(C)(C#N)c1nnc(-c2cc3c(cc2F)C(F)(F)C[C@@H](N)C(=O)N3Cc2ccc(-c3ccc(C(F)(F)F)cn3)cc2)o1 (single isomer, unassigned) [Example 12]	409	152		
9.92	COc1ccc(-c2ccc(CN3C(=O)[C@H](N)CC(F)(F)c4cc(F)c(-c5nnc(C(C)(C)C#N)o5)cc43)cc2)cc1 (single isomer, unassigned) [Example 9]	267	114		
14.1	CC(C)(c1nnc(-c2cc3c(cc2F)C(F)(F)C[C@@H](N)C(=O)N3Cc2ccc(-n3cnc(C(F)(F)F)n3)cc2)o1)S(C)(=O)=O (single isomer, unassigned) [Example 23]	> 10000	98		
